Measurements as given in US20070275052A1, “Pharmaceutical compositions containing sterol inhibitors” (Glenmark Pharmaceuticals Limited, priority 2006, published 2007).

Assay: Initial experiments: drug release of ezetimibe having particle size about 25 microns
Assay type: physicochemical
Conditions: ezetimibe particle size about 25 microns
From the text: The pharmaceutical compositions of present invention can be prepared with techniques well known in the art, preferably, direct compression, dry granulation and wet granulation.

release of the drug: 40-50%
Structure (SMILES): O=C1[C@H](CC[C@H](O)c2ccc(F)cc2)[C@@H](c2ccc(O)cc2)N1c1ccc(F)cc1 [ezetimibe, Ezetimibe]
